Data from patent publication US12410457B2, “Use of rosmarinic acid in cell bioproduction” (BRISTOL-MYERS SQUIBB COMPANY, priority 2015, dated 2025).

What was measured:
Assay type in all cases: cell-based, Chinese Hamster
aCD137 cells [1] = experiment: aCD137 fed-batch culture with antioxidant in basal and/or feed media (shaker flask, 7-liter, 500-liter)
Protocol: In another embodiment, the dhfr-negative Chinese Hamster Ovary (CHO) cell line DG44 (Invitrogen Corp. Carlsbad, CA) were transfected in order to establish a stable cell line expressing a human IgG4 antibody.
The transfected CHO DG44 cells expressing the antibody was grown in the presence of antioxidants according to the methods of the invention.
(§1) Cells were cultured either in 50 ml spin tubes with an initial volume of 25 ml and a shaking speed of 300 rpm; or 250 ml shake flasks with an initial volume of 80˜100 ml and a shaking speed of 150 rpm on an orbital shaker with 25 mm throw distance. Temperature for the culture was controlled at constant 37° C. from the beginning of the culture and was shifted to 34° C. when viable cell density reached 10^6 cells/ml (usually on day 6) and CO2 was controlled at 6%.
(§2) A standard fed-batch culture process involved culturing the cells for 14 days with feeding beginning on day 3 at a feeding volume of 3.64% of initial culture volume. All the media used for cultures were chemically defined. Chemically defined feed media M154A1B is an enriched version of feed media F3.2. While the ingredient lists are the same between the two feed media, the concentration of a few of the ingredients is increased. Likewise, chemically defined basal media M17IB is an enriched version of basal media B1. For cultures in 7-liter or 500-liter reactors, dissolved oxygen (DO) was maintained at 50% and pH was controlled between 6.8 and 7.4.
(§3) Viable cell density (VCD) and cell viability were measured off-line using a CEDEX® automated cell counter (Innovatis AG). Culture samples were also analyzed off-line using a BIOPROFILE® 400 Analyzer to monitor pH, pCO2, pO2, glucose, glutamine, glutamate, lactate, and ammonium (Nova Biomedical Corporation). A Protein A HPLC method was used to measure protein titer, which were reported as normalized values.

aCD137 cells [2] = experiment: Screen of antioxidants added to feed media in aCD137 fed-batch cell culture; settings: for VCD %: day 8 (peak VCD), basal media not supplemented; for VCD % / Titer %: normalized to control without antioxidant; for Titer %: final titer harvested day 14
Protocol: Following the cell culture process described in Example 1, thirteen novel antioxidants (Table 1) were added to the feed media utilized in aCD137 cell culture. Three antioxidant concentrations were evaluated: 1 mM (Run #1-13), 0.25 mM (Run #17-29), and 0.0625 mM (Run #33-45). The antioxidants were dissolved in either pure ethanol or dimethyl sulfoxide (DMSO) at 50 mM stock concentration and added to feed media M154A1B at the designed final concentrations. The corresponding solvent negative controls were run number 16, 32, and 48. Two traditional antioxidants, ascorbic acid (Run #14, 30, and 46) and reduced glutathione (Run #15, 31, and 47), served as positive controls. The basal media M171IB was not supplemented with antioxidant.
as §1, §2, §3

myostatin cells = experiment: Myostatin cell culture with antioxidant in basal and/or feed media (shake flask, 20-liter reactor)
Protocol: (§4) In another embodiment, the dhfr-negative Chinese Hamster Ovary (CHO) cell line DG44 (Invitrogen Corp. Carlsbad, CA) was transfected in order to establish a stable cell line expressing a recombinant human fusion protein.
(§5) The transfected CHO DG44 cells expressing the fusion protein was grown in the presence of antioxidants according to the methods of the invention.
as §1, §2, §3

aCD40L cells = experiment: aCD40L cell shake flask culture with catechin in feed media; settings: feed media 154A1 at 0.34 μM, 3.45 μM, 34.45 μM, 344.52 μM; basal media M17IB without catechin; shake flasks
Protocol: as §4, §5, §1
A standard fed-batch culture process involved culturing the cells for 14 days with feeding beginning on day 3 at a feeding volume of 3.64% of initial culture volume. All the media used for cultures were chemically defined. […]
as §3, with “A Protein A HPLC method was used to measure protein titer, which were reported as normalized values.” left out

[3] = basal media M17IB 0.07 mM and feed media M154A1B 1 mM, shaker flask fed-batch
[4] = 0.0625 mM in feed media M154A1B
[5] = feed at all three concentrations (0.0625-1 mM)
[6] = basal media B1 at 0.1 mM or feed media F3.2 at 1 mM or both, shake flask
[7] = basal media B1 at 0.1 mM, feed media F3.2, 20-liter bioreactor
[8] = basal media M17IB at 0.1 mM, feed media M154A1B, 7-liter fed-batch
[9] = basal media at 0.1 mM, 500-liter production run
[10] = feed media F3.2 at 1 mM, basal media B1, shaker flask fed-batch

Row | Molecule | protein titer (aCD137 cells [1]; [3]) | viable cell density (aCD137 cells [1]; [3]) | VCD % (aCD137 cells [2]; [4]) [%] | Titer % (aCD137 cells [2]; [4]) [%] | VCD % (aCD137 cells [2]; 0.25 mM in feed media M154A1B) [%] | Titer % (aCD137 cells [2]; 0.25 mM in feed media M154A1B) [%] | VCD % (aCD137 cells [2]; 1 mM in feed media M154A1B) [%] | Titer % (aCD137 cells [2]; 1 mM in feed media M154A1B) [%] | protein titer (aCD137 cells [2]; [5]) | further results
1 | O=C(/C=C/c1ccc(O)c(O)c1)O[C@@H]1C[C@](O)(C(=O)O)C[C@@H](O)[C@H]1O [Chlorogenic acid, chlorogenic acid] | increased | increased | 115.85 | 110.71 | 109.35 | 109.92 | 129.57 | 151.59 | increased protein titer | 
2 | Oc1ccc(-c2[o+]c3cc(O)cc(O)c3cc2O)cc1 [Pelargonidin, pelargonidin] |  |  |  |  |  |  | 104.47 | 118.25 |  | 
3 | O=c1c(O)c(-c2ccc(O)c(O)c2)oc2cc(O)cc(O)c12 [Quercetin, quercetin] | increased | increased |  |  | 119.28 | 111.90 | 123.11 | 128.97 |  | protein titer (aCD137 cells [2]; feed at 0.25 mM and 1 mM): increased protein titer
4 | Oc1ccc(C=Cc2cc(O)cc(O)c2)cc1 [Resveratrol, resveratrol] | increased | increased | 102.53 | 112.70 | 92.24 | 111.90 | 107.48 | 144.05 | increased protein titer | 
5 | O=C(/C=C/c1ccc(O)c(O)c1)O[C@H](Cc1ccc(O)c(O)c1)C(=O)O [Rosmarinic acid, rosmarinic acid] | increased | increased | 129.25 | 132.14 | 125.43 | 146.83 | 124.08 | 180.16 | increased protein titer | ammonium formation (myostatin cells; [6]): reduced; protein titer (myostatin cells; [6]): increased; viable cell density (myostatin cells; [6]): increased; protein titer (myostatin cells; [7]): effect on protein titer was maintained; viable cell density (myostatin cells; [7]): not changed; ammonium formation (aCD137 cells [1]; [8]): reduced; lactate formation (aCD137 cells [1]; [8]): reduced; protein titer (aCD137 cells [1]; [8]): increased; viable cell density (aCD137 cells [1]; [8]): increased; lactate formation (aCD137 cells [1]; [9]): reduced; protein titer (aCD137 cells [1]; [9]): increased; viable cell density (aCD137 cells [1]; [9]): increased
6 | COc1cc(C2Oc3cc([C@H]4Oc5cc(O)cc(O)c5C(=O)[C@@H]4O)ccc3OC2CO)ccc1O (stereo partly drawn) [Silibinin, silibinin] |  |  |  |  |  |  | 99.11 | 144.44 |  | 
7 | catechin | increased | increased | 98.66 | 111.90 | 93.52 | 112.70 | 102.01 | 116.67 | increased protein titer | protein titer (aCD40L cells): corresponds to an increase in catechin concentration; viable cell density (aCD40L cells): corresponds to an increase in catechin concentration; protein titer (myostatin cells; [7]): effect on protein titer was maintained; viable cell density (myostatin cells; [7]): not changed; ammonium formation (aCD137 cells [1]; [8]): reduced; lactate formation (aCD137 cells [1]; [8]): reduced; protein titer (aCD137 cells [1]; [8]): increased; viable cell density (aCD137 cells [1]; [8]): increased; protein titer (aCD137 cells [1]; [10]): increased; viable cell density (aCD137 cells [1]; [10]): maintained
